Key:
[1] = test system: ykt6 SNARE complexes; experiment: Co-IP of GFP-ykt6 SNARE assemblies in FTI-treated SH-SY5Y cells; type: cell-based, human; settings: SH-SY5Y cells expressing GFP-ykt6 wt; 5 nM, 5d
Method: (§1) FIGS. 5A, 5B, 5C, 5D, 5E, 5F, and 5G. Reducing farnesyl-ykt6 enhances SNARE assembly and improves the lysosomal targeting of GCase. 5A) Ykt6 membrane shift analysis of SH-SY5Y cells expressing GFP-ykt6 wt or CS (n=3). 5B) Co-IP of GFP-ykt6 and bet1 in A53T iPSn (n=3). 5C) Ykt6 membrane shift analysis in FTI-treated SH-SY5Y wt a-syn cells or A53T iPSn (5 nM farnesyltransferase inhibitors (FTI) LNK-754 (FTI-1) or LNK-3248 (FTI-2) for 5 days) (n=4). Sec22b was measured to assess specificity. 5D) SEC/western blot of FTI-1 treated SH-SY5Y cells. Quantification is shown below. 5E) Co-IP of GFP-ykt6 wt or mutant ykt6-SS, (cannot be palmitoylated or farnesylated) in FTI-treated SHSY5Y cells (5 nM LNK-754, 5d) (n=2). 5F) Immunofluorescence of GCase and LAMP2A in FTI-treated H4 a-syn cells transfected with scrambled (scrb) or ykt6 shRNA (n=3). Scale bar=10 um. 5G) GCase maturation analysis in FTI-treated A53T iPSn by endo H (n=3). Values are the mean+/−SEM, *p<0.05.
To co-IP ykt6 SNARE assemblies, approximately 106-107 cells expressing GFP-tagged YKT6, were harvested in 1 ml of PBS, scraped off the plate and transferred to centrifuge tubes. The cells were subjected to centrifugation 200×g for 5 m at 4° C. […] Eluates were analyzed by western blot as described below. The samples were not analyzed in a blinded manner.

[2] = test system: GCase; experiment: Analysis of post-ER GCase (endo H resistance) in FTI-treated cultures; type: cell-based, human; settings: A53T iPSn and SHSY5Y cells
Method: as §1, with “5F) Immunofluorescence of GCase and LAMP2A in FTI-treated H4 a-syn cells transfected with scrambled (scrb) or ykt6 shRNA (n=3). Scale bar=10 um. 5G) GCase maturation analysis in FTI-treated A53T iPSn by endo H (n=3). Values are the mean+/−SEM, *p<0.05.” left out
FIGS. 14A, 14B, 14C, 14D, 14E, 14F, and 14G. […] 14A) Farnesylation of ykt6 was measured in SH-SY5Y cells expressing GFP-ykt6. […] Biotin was detected with streptavidin-conjugated IRDye800, and normalized to total levels of GFP-ykt6. […] Ykt6 complex levels eluting at ca. 120A were quantified on the right (n=2). […] 14E) Raw quantification data of LAMP2A immunofluorescence intensity of individual cells from H4 cells treated with FTI, +/−ykt6 KD. […] For all quantifications, values are the mean+/−SEM, *p<0.05.
Analysis of post-ER GCase. […] Endo H resistant bands migrating at 62-64 kDa were measured as post-ER forms of GCase, and normalized to GAPDH levels. […]

C#Cc1cccc(-c2cc(=O)n(C)c3ccc([C@](O)(c4ccc(Cl)cc4)c4cncn4C)cc23)c1 [LNK-754]
ykt6 SNARE complexes by co-IP [1]: increased ykt6 SNARE complexes | mature, endo H-resistant GCase [2]: significantly elevated
